Measurements published in patent publication US7138361B2, “Herbicidal heterocycles” (E. I. du Pont de Nemours and Company, priority 2000, dated 2006).

Experiments:
Assay type in all cases: in vivo
[1] = system: velvetleaf (Abutilon theophrasti); assay: Test C preemergence; details: for Plant response rating, Velvetleaf: scale 0 to 100, 0 no effect, 100 complete control
Outline: (§1)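 Formulation: non-phytotoxic solvent mix incl. surfactant. Pre: applied right after planting. Post: 1–4-leaf seedlings. Read: visual 0–100, day 12–14, greenhouse.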

[2] = system: cocklebur (Xanthium strumarium); assay: Test C preemergence; details: for Plant response rating, Cocklebur: scale 0 to 100, 0 no effect, 100 complete control; for Plant response rating (0 to 100), Cocklebur: preemergence, visual evaluation after 12 to 14 days
Outline: as §1

kochia (Kochia scoparia) = assay: Test C preemergence; details: for Plant response rating, Kochia: scale 0 to 100, 0 no effect, 100 complete control; for Plant response rating (0 to 100), Kochia: preemergence, visual evaluation after 12 to 14 days
Outline: as §1

[3] = system: Surinam grass (Brachiaria decumbens); assay: Test C preemergence; details: for Plant response rating, Surinam grass: scale 0 to 100, 0 no effect, 100 complete control; for Plant response rating (0 to 100), Surinam grass: preemergence, visual evaluation after 12 to 14 days
Outline: as §1

[4] = system: common ragweed (Ambrosia elatior); assay: Test C preemergence; details: for Plant response rating, Ragweed, Common: scale 0 to 100, 0 no effect, 100 complete control
Outline: as §1

[5] = system: yellow nutsedge (Cyperus esculentus); assay: Test C preemergence; details: for Plant response rating, Nutsedge: scale 0 to 100, 0 no effect, 100 complete control
Outline: as §1

[6] = system: crabgrass (Digitaria sanguinalis); assay: Test C preemergence; details: for Plant response rating, Crabgrass: scale 0 to 100, 0 no effect, 100 complete control; for Plant response rating (0 to 100), Crabgrass: preemergence, visual evaluation after 12 to 14 days
Outline: as §1

[7] = system: pigweed (Amaranthus retroflexus); assay: Test C preemergence; details: for Plant response rating, Pigweed: scale 0 to 100, 0 no effect, 100 complete control
Outline: as §1

[8] = system: johnsongrass (Sorghum halepense); assay: Test C preemergence; details: for Plant response rating, Johnsongrass: scale 0 to 100, 0 no effect, 100 complete control; for Plant response rating (0 to 100), Johnsongrass: preemergence, visual evaluation after 12 to 14 days
Outline: as §1

[9] = system: woolly cupgrass (Eriochloa villosa); assay: Test C preemergence; details: for Plant response rating, Cupgrass, Woolly: scale 0 to 100, 0 no effect, 100 complete control; for Plant response rating (0 to 100), Cupgrass, Woolly: preemergence, visual evaluation after 12 to 14 days
Outline: as §1

corn (Zea mays) = assay: Test C preemergence; details: for Plant response rating, Corn: scale 0 to 100, 0 no effect, 100 complete control; for Plant response rating (0 to 100), Corn: preemergence, visual evaluation after 12 to 14 days
Outline: as §1

[10] = system: goosegrass (Eleusine indica); assay: Test C preemergence; details: for Plant response rating, Goosegrass: scale 0 to 100, 0 no effect, 100 complete control; for Plant response rating (0 to 100), Goosegrass: preemergence, visual evaluation after 12 to 14 days
Outline: as §1

[11] = system: bermudagrass (Cynodon dactylon); assay: Test C preemergence; details: for Plant response rating, Bermudagrass: scale 0 to 100, 0 no effect, 100 complete control; for Plant response rating (0 to 100 where 0 is no effect and 100 is complete control), Bermudagrass: preemergence, visual evaluation after 12 to 14 days
Outline: as §1

[12] = system: morningglory (Ipomoea hederacea); assay: Test C preemergence; details: for Plant response rating, Morningglory: scale 0 to 100, 0 no effect, 100 complete control
Outline: as §1

soybean (Glycine max) = assay: Test C preemergence; details: for Plant response rating, Soybean: scale 0 to 100, 0 no effect, 100 complete control
Outline: as §1

[13] = system: lambsquarters (Chenopodium album); assay: Test C preemergence; details: for Plant response rating, Lambsquarters: scale 0 to 100, 0 no effect, 100 complete control
Outline: as §1

Nightshade = assay: Test C preemergence; details: scale 0 to 100, 0 no effect, 100 complete control
Sunflower = assay: Test C preemergence; details: Rate 125 g/ha; scale 0 to 100, 0 no effect, 100 complete control
[14] = system: giant foxtail (Setaria faberii); assay: Test C preemergence; details: for Plant response rating, Foxtail, Giant: scale 0 to 100, 0 no effect, 100 complete control; for Plant response rating (0 to 100), Foxtail, Giant: preemergence, visual evaluation after 12 to 14 days
Outline: as §1

[15] = system: barnyardgrass (Echinochloa crus-galli); assay: Test C flooded paddy test; details: for Barnyardgrass plant response rating: Flooded Paddy, scale 0 to 100, 0 no effect, 100 complete control; for Plant response rating, Barnyardgrass: flooded paddy test, scale 0 to 100 (0 no effect, 100 complete control)
Outline: (§2)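 Response on a 0-to-100 scale (no effect to complete control) was assessed by eye versus controls. Plants had reached 2 leaves when treated in flooded paddy conditions. The assessment took place after 12–14 days of greenhouse growth.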

[16] = system: duck salad (Heteranthera limosa); assay: Test C flooded paddy test; details: for Ducksalad plant response rating: Flooded Paddy, scale 0 to 100, 0 no effect, 100 complete control; for Plant response rating, Ducksalad: flooded paddy test, scale 0 to 100 (0 no effect, 100 complete control)
Outline: as §2

[17] = system: smallflower flatsedge (Cyperus difformis); assay: Test C flooded paddy test; details: for Flatsedge plant response rating: Flooded Paddy, scale 0 to 100, 0 no effect, 100 complete control; for Plant response rating, Flatsedge: flooded paddy test, scale 0 to 100 (0 no effect, 100 complete control)
Outline: as §2

[18] = preemergence, Rate 500 g/ha, visual evaluation after 12 to 14 days

Cc1ccc(N2CCC(n3ccc(C(C)(C)C)n3)C2=O)cc1OC(F)F (centres unmarked) [Compound 79]
50: Plant response rating (0 to 100), Velvetleaf [1, 18] | Plant response rating (0 to 100), Soybean (soybean (Glycine max); [18]) | Plant response rating, Nightshade (Nightshade; Rate 125 g/ha) | Plant response rating, Nightshade (Nightshade; Rate 250 g/ha)
20: Plant response rating, Velvetleaf ([1]; preemergence, Rate 250 g/ha) | Plant response rating, Surinam grass ([3]; Rate 125 g/ha) | Plant response rating, Pigweed ([7]; preemergence, Rate 250 g/ha) | Plant response rating, Nightshade (Nightshade; Rate 62 g/ha)
0: Plant response rating, Velvetleaf ([1]; Rate 125 g/ha) | Plant response rating, Cocklebur ([2]; Rate 62 g/ha) | Plant response rating, Cocklebur ([2]; Rate 125 g/ha) | Plant response rating (0 to 100), Cocklebur ([2]; Rate 250 g/ha) | Plant response rating, Surinam grass ([3]; Rate 62 g/ha) | Plant response rating, Nutsedge ([5]; Rate 62 g/ha) | Plant response rating, Nutsedge ([5]; Rate 125 g/ha) | Plant response rating (0 to 100), Nutsedge [5, 18] | Plant response rating, Nutsedge ([5]; preemergence, Rate 250 g/ha) | Plant response rating, Johnsongrass ([8]; Rate 62 g/ha) | Plant response rating, Johnsongrass ([8]; Rate 125 g/ha) | Plant response rating (0 to 100), Johnsongrass ([8]; Rate 250 g/ha) | Plant response rating (0 to 100), Johnsongrass ([8]; Rate 500 g/ha) | Plant response rating, Corn (corn (Zea mays); Rate 62 g/ha) | Plant response rating, Corn (corn (Zea mays); Rate 125 g/ha) | Plant response rating (0 to 100), Corn (corn (Zea mays); Rate 250 g/ha) | Plant response rating (0 to 100), Corn (corn (Zea mays); Rate 500 g/ha) | Plant response rating, Morningglory ([12]; Rate 62 g/ha) | Plant response rating, Morningglory ([12]; Rate 125 g/ha) | Plant response rating, Soybean (soybean (Glycine max); Rate 125 g/ha) | Plant response rating, Soybean (soybean (Glycine max); preemergence, Rate 250 g/ha) | Plant response rating, Sunflower (Sunflower) | Plant response rating, Foxtail, Giant ([14]; Rate 62 g/ha) | Plant response rating, Foxtail, Giant ([14]; Rate 125 g/ha) | Plant response rating (0 to 100), Foxtail, Giant ([14]; Rate 250 g/ha) | Plant response rating (0 to 100), Foxtail, Giant ([14]; Rate 500 g/ha) | Plant response rating, Ducksalad ([16]; Rate 62 g/ha)
30: Plant response rating (0 to 100), Cocklebur ([2]; Rate 500 g/ha) | Plant response rating, Morningglory ([12]; preemergence, Rate 250 g/ha) | Plant response rating, Barnyardgrass ([15]; Rate 62 g/ha) | Plant response rating, Ducksalad ([16]; Rate 125 g/ha)
80: Plant response rating, Goosegrass ([10]; Rate 62 g/ha)
90: Plant response rating, Cupgrass, Woolly ([9]; Rate 62 g/ha) | Plant response rating, Cupgrass, Woolly ([9]; Rate 125 g/ha) | Plant response rating, Goosegrass ([10]; Rate 125 g/ha) | Barnyardgrass plant response rating ([15]; Rate 250 g/ha) | Barnyardgrass plant response rating ([15]; Rate 500 g/ha) | Ducksalad plant response rating ([16]; Rate 250 g/ha) | Ducksalad plant response rating ([16]; Rate 500 g/ha) | Flatsedge plant response rating ([17]; Rate 250 g/ha) | Flatsedge plant response rating ([17]; Rate 500 g/ha) | Plant response rating, Flatsedge ([17]; Rate 62 g/ha) | Plant response rating, Flatsedge ([17]; Rate 125 g/ha)
10: Plant response rating, Pigweed ([7]; Rate 125 g/ha)
40: Plant response rating, Barnyardgrass ([15]; Rate 125 g/ha)
70: Plant response rating (0 to 100), Morningglory [12, 18]
100: Plant response rating, Kochia (kochia (Kochia scoparia); Rate 62 g/ha) | Plant response rating, Kochia (kochia (Kochia scoparia); Rate 125 g/ha) | Plant response rating (0 to 100), Kochia (kochia (Kochia scoparia); Rate 250 g/ha) | Plant response rating (0 to 100), Kochia (kochia (Kochia scoparia); Rate 500 g/ha) | Plant response rating (0 to 100), Surinam grass ([3]; Rate 500 g/ha) | Plant response rating, Ragweed, Common ([4]; Rate 125 g/ha) | Plant response rating (0 to 100), Ragweed, Common [4, 18] | Plant response rating, Ragweed, Common ([4]; preemergence, Rate 250 g/ha) | Plant response rating, Crabgrass ([6]; Rate 62 g/ha) | Plant response rating, Crabgrass ([6]; Rate 125 g/ha) | Plant response rating (0 to 100), Crabgrass ([6]; Rate 250 g/ha) | Plant response rating (0 to 100), Crabgrass ([6]; Rate 500 g/ha) | Plant response rating (0 to 100), Pigweed [7, 18] | Plant response rating (0 to 100), Cupgrass, Woolly ([9]; Rate 250 g/ha) | Plant response rating (0 to 100), Cupgrass, Woolly ([9]; Rate 500 g/ha) | Plant response rating (0 to 100), Goosegrass ([10]; Rate 250 g/ha) | Plant response rating (0 to 100), Goosegrass ([10]; Rate 500 g/ha) | Plant response rating, Bermudagrass ([11]; Rate 62 g/ha) | Plant response rating, Bermudagrass ([11]; Rate 125 g/ha) | Plant response rating (0 to 100 where 0 is no effect and 100 is complete control), Bermudagrass ([11]; Rate 250 g/ha) | Plant response rating (0 to 100 where 0 is no effect and 100 is complete control), Bermudagrass ([11]; Rate 500 g/ha) | Plant response rating, Lambsquarters ([13]; Rate 62 g/ha) | Plant response rating, Lambsquarters ([13]; Rate 125 g/ha) | Plant response rating (0 to 100), Lambsquarters [13, 18] | Plant response rating, Lambsquarters ([13]; preemergence, Rate 250 g/ha)
60: Plant response rating (0 to 100), Surinam grass ([3]; Rate 250 g/ha)
